US6541256B1, “Growth medium for human corneal endothelial cells” (The Schepens Eye Research Institute, Inc., priority 1999, dated 2003)

System: endothelial "ionic pump"
Assay: pump function tested by pachymetry of transplanted corneas after exposure to ouabain
Parameters: species or system human
Settings: 200 μM ouabain
Description: Corneas from donors (52-80 years old) were obtained from an eye bank. Descemet's membrane was stripped and endothelial cells were removed by mild EDTA treatment. Cells, cultured in the preferred formulation of the culture medium, were identified by RT-PCR of collagen type VIII and keratin-12 and by morphology. Cells (2.5×10^5) were seeded onto denuded Descemet's membrane from a second donor cornea. The cornea was incubated in culture for up to 1 month. Cell-cell contact of transplanted cells was evaluated by ZO-1 staining. Morphology and ultrastructure were examined by transmission electron microscopy. Pump function was tested by pachymetry after exposure to 200 μM ouabain. Cultured cells were identified as corneal endothelium by characteristic mRNA expression and morphology. The success rate of primary cultures, obtained from corneas stored <5 days after death, was about 99%. […] With time, cell-substrate adhesion, cell-cell contact, and lateral interdigitation increased, and the cells rearranged to form a monolayer. When the endothelium is functional, it draws water out of the corneal stroma, resulting in a thin cornea. Ouabain, a cardiac glycoside, inhibits the function of the endothelial “ionic pump”, causing an increase in corneal thickness. […] Referring to FIG. 4, pachymetry of transplanted corneas after ouabain treatment is graphically depicted. […]

## C[C@@H]1O[C@@H](O[C@H]2C[C@@H](O)[C@]3(CO)[C@H]4[C@H](O)C[C@]5(C)[C@@H](C6=CC(=O)OC6)CC[C@]5(O)[C@@H]4CC[C@]3(O)C2)[C@H](O)[C@H](O)[C@H]1O [ouabain]
Transplanted corneas after 14 days in organ culture
  period over which corneal thickness increased to maximum: 2 to 3 h
Transplants maintained 14 days in organ culture, 5 corneas
  corneal thickness measured by pachymetry (FIG. 4): increased to a level equal to that of corneas denuded of endothelium
